# Assays:
# Format in all cases: binding
# PB1(6) = molecular target: T1, PB1(6) (Homo sapiens, UniProt Q86U86); experiment: Thermal shift assay, PB1(6)
# T1 construct: PB1(6); purchased in-house (SGC bromodomain thermal shift / AlphaScreen panel)
# Method: (§1) II.VII Thermal Shift Assay[6]
# (§2) Thermal melting experiments were carried out using an Mx3005p Real Time PCR machine (Stratagene). Proteins were buffered in 10 mM HEPES pH 7.5, 500 mM NaCl and assayed in a 96-well plate at a final concentration of 2 μM in 20 μL volume. Compounds were added at a final concentration of 50 μM. SYPRO Orange (Molecular Probes) was added as a fluorescence probe at a dilution of 1:1000. Excitation and emission filters for the SYPRO-Orange dye were set to 465 nm and 590 nm, respectively. The temperature was raised with a step of 3 °C per minute from 25 °C to 96 °C and fluorescence readings were taken at each interval. The unfolding curves were fitted using the Boltzmann equation to determine the middle point of the transition.
# PB1(5) = molecular target: T2, PB1(5) (Homo sapiens, UniProt Q86U86); experiment: Thermal shift assay, PB1(5)
# T2 construct: PB1(5); purchased in-house (SGC bromodomain thermal shift / AlphaScreen panel)
# Method: as §1, §2
# BRD1 = molecular target: T3, BRD1 (Homo sapiens, UniProt O95696); experiment: Thermal shift assay, BRD1
# T3 construct: purchased in-house (SGC bromodomain thermal shift / AlphaScreen panel)
# T3 sequence (O95696 1-1058): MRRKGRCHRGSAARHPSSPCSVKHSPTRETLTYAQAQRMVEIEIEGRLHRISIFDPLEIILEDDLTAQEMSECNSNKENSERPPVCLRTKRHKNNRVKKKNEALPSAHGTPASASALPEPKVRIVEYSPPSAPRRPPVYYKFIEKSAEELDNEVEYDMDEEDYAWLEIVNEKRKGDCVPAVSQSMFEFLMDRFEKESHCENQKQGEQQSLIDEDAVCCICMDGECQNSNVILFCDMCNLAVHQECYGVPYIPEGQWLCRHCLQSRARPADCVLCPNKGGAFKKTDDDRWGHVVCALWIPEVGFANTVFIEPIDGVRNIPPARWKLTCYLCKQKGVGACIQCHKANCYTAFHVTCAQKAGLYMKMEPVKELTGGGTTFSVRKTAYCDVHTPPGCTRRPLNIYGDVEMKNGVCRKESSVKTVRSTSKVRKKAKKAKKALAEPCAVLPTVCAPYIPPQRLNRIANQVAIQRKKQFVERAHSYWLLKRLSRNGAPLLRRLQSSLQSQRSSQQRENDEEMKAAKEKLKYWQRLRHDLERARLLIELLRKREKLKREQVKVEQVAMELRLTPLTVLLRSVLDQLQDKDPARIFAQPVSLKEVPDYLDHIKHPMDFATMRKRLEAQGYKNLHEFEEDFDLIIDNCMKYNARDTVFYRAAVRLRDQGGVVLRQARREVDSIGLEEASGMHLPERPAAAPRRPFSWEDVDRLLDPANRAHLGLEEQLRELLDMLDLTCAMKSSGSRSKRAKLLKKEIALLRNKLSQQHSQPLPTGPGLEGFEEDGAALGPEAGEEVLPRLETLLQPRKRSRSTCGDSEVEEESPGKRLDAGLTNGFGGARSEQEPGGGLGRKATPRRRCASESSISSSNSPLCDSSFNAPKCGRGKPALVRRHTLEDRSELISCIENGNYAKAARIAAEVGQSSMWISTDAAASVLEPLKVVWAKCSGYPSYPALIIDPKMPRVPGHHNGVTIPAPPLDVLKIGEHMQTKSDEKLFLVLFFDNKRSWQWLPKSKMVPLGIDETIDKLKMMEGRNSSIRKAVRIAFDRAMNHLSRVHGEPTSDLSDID
# Method: as §1, §2
# BRPF3 = molecular target: T4, BRPF3 (Homo sapiens, UniProt Q9ULD4); experiment: Thermal shift assay, BRPF3
# T4 construct: purchased in-house (SGC bromodomain thermal shift / AlphaScreen panel)
# T4 sequence (Q9ULD4 1-1205): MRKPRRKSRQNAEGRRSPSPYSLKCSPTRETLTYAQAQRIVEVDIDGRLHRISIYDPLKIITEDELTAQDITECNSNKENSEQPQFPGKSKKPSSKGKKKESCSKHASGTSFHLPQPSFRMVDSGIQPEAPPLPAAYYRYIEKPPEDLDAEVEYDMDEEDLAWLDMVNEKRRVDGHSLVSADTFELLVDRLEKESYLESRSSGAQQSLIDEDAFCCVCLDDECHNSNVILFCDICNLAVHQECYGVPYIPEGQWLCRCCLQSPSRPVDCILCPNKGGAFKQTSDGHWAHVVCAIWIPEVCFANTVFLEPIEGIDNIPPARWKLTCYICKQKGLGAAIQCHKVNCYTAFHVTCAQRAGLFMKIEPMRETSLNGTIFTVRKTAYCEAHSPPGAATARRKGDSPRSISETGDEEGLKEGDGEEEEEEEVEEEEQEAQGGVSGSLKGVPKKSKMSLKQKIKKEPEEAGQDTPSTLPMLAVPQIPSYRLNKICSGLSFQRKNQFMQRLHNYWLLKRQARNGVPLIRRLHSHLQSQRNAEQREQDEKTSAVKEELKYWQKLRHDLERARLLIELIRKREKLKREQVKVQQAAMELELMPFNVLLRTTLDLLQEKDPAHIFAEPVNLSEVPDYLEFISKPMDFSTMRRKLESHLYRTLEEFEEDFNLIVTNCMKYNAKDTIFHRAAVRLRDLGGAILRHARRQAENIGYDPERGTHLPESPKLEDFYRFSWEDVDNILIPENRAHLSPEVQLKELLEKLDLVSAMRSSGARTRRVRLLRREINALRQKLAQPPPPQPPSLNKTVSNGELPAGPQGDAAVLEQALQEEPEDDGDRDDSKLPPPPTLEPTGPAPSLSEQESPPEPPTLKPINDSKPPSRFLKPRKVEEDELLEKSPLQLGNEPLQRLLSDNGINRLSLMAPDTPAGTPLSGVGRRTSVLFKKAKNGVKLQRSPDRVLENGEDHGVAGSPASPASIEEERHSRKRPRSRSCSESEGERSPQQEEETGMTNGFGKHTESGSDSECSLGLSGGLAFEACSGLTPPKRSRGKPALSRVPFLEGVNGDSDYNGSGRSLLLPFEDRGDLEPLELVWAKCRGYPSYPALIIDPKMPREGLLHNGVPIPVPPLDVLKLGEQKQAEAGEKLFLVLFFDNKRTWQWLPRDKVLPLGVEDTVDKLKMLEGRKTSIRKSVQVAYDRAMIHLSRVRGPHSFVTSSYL
# Method: as §1, §2
# TRIM28 = molecular target: T5, TRIM28 (Homo sapiens, UniProt Q13263); experiment: Thermal shift assay, TRIM28
# T5 construct: Bromosporine with recombinant human bromodomain proteins; made in house
# Method: as §1, §2
# T2 sequence (Q86U86 645-766 limits assumed): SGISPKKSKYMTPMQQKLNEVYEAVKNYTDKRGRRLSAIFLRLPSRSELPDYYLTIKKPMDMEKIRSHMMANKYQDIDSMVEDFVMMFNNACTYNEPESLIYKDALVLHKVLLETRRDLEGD
# T5 sequence (Q13263 695-799 limits assumed): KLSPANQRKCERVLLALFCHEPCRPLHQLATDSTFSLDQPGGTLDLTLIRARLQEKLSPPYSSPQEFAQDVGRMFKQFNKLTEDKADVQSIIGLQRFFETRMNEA
# T1 sequence (Q86U86 773-914 limits assumed): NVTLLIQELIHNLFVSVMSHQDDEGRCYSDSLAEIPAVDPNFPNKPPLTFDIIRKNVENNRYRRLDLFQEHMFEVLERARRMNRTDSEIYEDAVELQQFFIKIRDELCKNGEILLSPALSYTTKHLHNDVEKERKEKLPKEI
Structure (SMILES),"Thermal stabilisation, PB1(6) (PB1(6); 50 μM compound)","Thermal stabilisation, PB1(5) (PB1(5); 50 μM compound)","Thermal stabilisation, BRD1 (BRD1; 50 μM compound)","Thermal stabilisation, BRPF3 (BRPF3; 50 μM compound)","Thermal stabilisation, TRIM28 (TRIM28; 50 μM compound)","Thermal stabilisation, PB1(6) (PB1(6); 10 µM compound concentration)","Thermal stabilisation, PB1(5) (PB1(5); 10 µM compound concentration)","Thermal stabilisation, BRD1 (BRD1; 10 µM compound concentration)","Thermal stabilisation, BRPF3 (BRPF3; 10 µM compound concentration)","Thermal stabilisation, TRIM28 (TRIM28; 10 µM compound concentration)"
COC(=O)c1ccc(C(=O)Nc2ccc3[nH]c(CN4CCCCC4)nc3c2)cc1 [Compound 1],0.17,-0.245,0.2,1.015,0.02,,,,,
C[C@H]1CCCN1Cc1nc2cc(NC(=O)c3ccc4c(cnn4C)c3)ccc2[nH]1 [Compound 92],-0.365,-0.56,0.215,-0.245,-0.225,,,,,
"CCOC(=O)Nc1cc(-c2ccc(C)c(NS(C)(=O)=O)c2)nn2c(C)nnc12 [Bromosporine, reference compound]",,,,,,0.82,0.98,2.055,1,0.265
